Data: ChEMBL document CHEMBL4507281, “Data for DCP probe BI-4394” (2021)

What was measured:
[1] = tested on: Receptor-type tyrosine-protein kinase FLT3 (Homo sapiens), P36888 [D835V]; settings: Compound concentration 100.0 nM
[2] = tested on: Tyrosine-protein kinase ABL1 (Homo sapiens), P00519 [F317I]; settings: Compound concentration 100.0 nM
[3] = molecular target: T1, Phosphorylase b kinase regulatory subunit alpha, liver isoform (Homo sapiens) (UniProt P46019); settings: Compound concentration 10.0 uM
T1 sequence (whole entry): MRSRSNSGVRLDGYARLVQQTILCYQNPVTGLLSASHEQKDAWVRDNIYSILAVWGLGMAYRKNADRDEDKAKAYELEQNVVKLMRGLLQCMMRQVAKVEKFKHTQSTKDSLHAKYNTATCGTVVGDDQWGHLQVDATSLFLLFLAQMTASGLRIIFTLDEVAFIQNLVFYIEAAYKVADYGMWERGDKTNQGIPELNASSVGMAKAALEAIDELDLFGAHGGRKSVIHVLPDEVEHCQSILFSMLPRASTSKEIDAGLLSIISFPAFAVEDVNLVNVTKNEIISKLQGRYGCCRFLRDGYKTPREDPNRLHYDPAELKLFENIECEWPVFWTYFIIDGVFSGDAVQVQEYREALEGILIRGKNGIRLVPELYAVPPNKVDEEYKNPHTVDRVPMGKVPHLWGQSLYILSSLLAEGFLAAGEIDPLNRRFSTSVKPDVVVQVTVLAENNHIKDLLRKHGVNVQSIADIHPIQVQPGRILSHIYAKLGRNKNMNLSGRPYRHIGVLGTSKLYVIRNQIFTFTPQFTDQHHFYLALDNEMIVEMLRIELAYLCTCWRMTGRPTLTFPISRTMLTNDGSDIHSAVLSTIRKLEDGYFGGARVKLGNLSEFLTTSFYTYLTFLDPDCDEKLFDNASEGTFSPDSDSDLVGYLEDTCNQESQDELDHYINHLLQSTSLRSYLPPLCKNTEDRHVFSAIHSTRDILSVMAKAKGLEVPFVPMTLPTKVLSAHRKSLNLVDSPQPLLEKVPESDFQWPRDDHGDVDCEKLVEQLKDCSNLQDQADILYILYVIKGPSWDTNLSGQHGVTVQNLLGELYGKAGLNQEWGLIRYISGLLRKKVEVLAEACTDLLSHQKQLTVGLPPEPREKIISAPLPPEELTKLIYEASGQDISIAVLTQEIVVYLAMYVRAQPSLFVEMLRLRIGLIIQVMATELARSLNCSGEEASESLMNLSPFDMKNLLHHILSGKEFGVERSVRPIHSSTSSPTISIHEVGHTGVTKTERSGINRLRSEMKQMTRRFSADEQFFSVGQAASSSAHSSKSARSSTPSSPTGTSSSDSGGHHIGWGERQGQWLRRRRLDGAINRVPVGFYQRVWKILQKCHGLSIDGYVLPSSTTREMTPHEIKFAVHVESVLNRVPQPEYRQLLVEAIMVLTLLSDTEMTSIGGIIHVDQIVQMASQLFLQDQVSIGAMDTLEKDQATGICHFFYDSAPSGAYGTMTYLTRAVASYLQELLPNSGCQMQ

[4] = molecular target: Alpha-2C adrenergic receptor (Homo sapiens) (UniProt P18825); settings: Compound concentration 10.0 uM
[5] = molecular target: Phosphatidylinositol 3-kinase C2 domain-containing subunit gamma (Homo sapiens) (UniProt O75747); settings: Compound concentration 100.0 nM
[6] = molecular target: D(1A) dopamine receptor (Homo sapiens) (UniProt P21728); settings: Compound concentration 10.0 uM
[7] = molecular target: MAP kinase-activated protein kinase 2 (Homo sapiens) (UniProt P49137); settings: Compound concentration 100.0 nM
[8] = molecular target: Phosphatidylinositol 4-kinase beta (Homo sapiens) (UniProt Q9UBF8); settings: Compound concentration 100.0 nM
[9] = tested on: Epidermal growth factor receptor (Homo sapiens), P00533 [G719S]; settings: Compound concentration 100.0 nM
[10] = molecular target: Bone morphogenetic protein receptor type-2 (Homo sapiens) (UniProt Q13873); settings: Compound concentration 100.0 nM
[11] = molecular target: 5-hydroxytryptamine receptor 6 (Homo sapiens) (UniProt P50406); settings: Compound concentration 10.0 uM
[12] = tested on: Phosphatidylinositol 4,5-bisphosphate 3-kinase catalytic subunit alpha isoform (Homo sapiens), P42336 [M1043I]; settings: Compound concentration 100.0 nM
[13] = molecular target: Tyrosine-protein kinase Tec (Homo sapiens) (UniProt P42680); settings: Compound concentration 100.0 nM
[14] = molecular target: Cyclin-dependent kinase 9 (Homo sapiens) (UniProt P50750); settings: Compound concentration 100.0 nM
[15] = molecular target: 5-hydroxytryptamine receptor 2C (Homo sapiens) (UniProt P28335); settings: Compound concentration 10.0 uM
[16] = molecular target: Ephrin type-B receptor 2 (Homo sapiens) (UniProt P29323); settings: Compound concentration 100.0 nM
[17] = molecular target: Mitogen-activated protein kinase kinase kinase 3 (Homo sapiens) (UniProt Q99759); settings: Compound concentration 100.0 nM
[18] = molecular target: Cyclin-dependent kinase 1/cyclin B (Homo sapiens) (UniProt P06493+P14635+Q8WWL7+O95067); settings: Compound concentration 10.0 uM
[19] = molecular target: Insulin-like growth factor 1 receptor (Homo sapiens) (UniProt P08069); settings: Compound concentration 10.0 uM
[20] = molecular target: Focal adhesion kinase 1 (Homo sapiens) (UniProt Q05397); settings: Compound concentration 100.0 nM
[21] = tested on: Proto-oncogene tyrosine-protein kinase receptor Ret (Homo sapiens), P07949 [V804M]; settings: Compound concentration 100.0 nM
[22] = molecular target: Tyrosine-protein kinase Fgr (Homo sapiens) (UniProt P09769); settings: Compound concentration 100.0 nM
[23] = molecular target: Serine/threonine-protein kinase tousled-like 2 (Homo sapiens) (UniProt Q86UE8); settings: Compound concentration 100.0 nM
[24] = molecular target: Dual specificity protein kinase CLK4 (Homo sapiens) (UniProt Q9HAZ1); settings: Compound concentration 100.0 nM
[25] = molecular target: cAMP-dependent protein kinase catalytic subunit alpha (Homo sapiens) (UniProt P17612); settings: Compound concentration 100.0 nM
[26] = molecular target: Serine/threonine-protein kinase 3 (Homo sapiens) (UniProt Q13188); settings: Compound concentration 100.0 nM
Chain of Serine/threonine-protein kinase 3 (Homo sapiens) (Q13188 whole entry): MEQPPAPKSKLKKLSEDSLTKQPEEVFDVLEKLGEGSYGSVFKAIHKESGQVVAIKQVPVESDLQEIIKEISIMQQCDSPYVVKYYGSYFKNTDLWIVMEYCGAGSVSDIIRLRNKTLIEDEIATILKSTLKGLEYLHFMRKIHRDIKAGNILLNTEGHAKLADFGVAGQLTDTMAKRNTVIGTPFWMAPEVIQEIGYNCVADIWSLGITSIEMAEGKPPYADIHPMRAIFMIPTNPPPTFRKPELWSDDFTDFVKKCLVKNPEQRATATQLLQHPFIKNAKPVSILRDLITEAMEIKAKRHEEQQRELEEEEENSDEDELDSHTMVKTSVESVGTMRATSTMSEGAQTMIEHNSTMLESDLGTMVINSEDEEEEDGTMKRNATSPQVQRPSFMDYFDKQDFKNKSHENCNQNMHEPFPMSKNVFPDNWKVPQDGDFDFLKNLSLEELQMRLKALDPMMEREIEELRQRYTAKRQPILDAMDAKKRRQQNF

Chain of MAP kinase-activated protein kinase 2 (Homo sapiens) (P49137 whole entry, looked up): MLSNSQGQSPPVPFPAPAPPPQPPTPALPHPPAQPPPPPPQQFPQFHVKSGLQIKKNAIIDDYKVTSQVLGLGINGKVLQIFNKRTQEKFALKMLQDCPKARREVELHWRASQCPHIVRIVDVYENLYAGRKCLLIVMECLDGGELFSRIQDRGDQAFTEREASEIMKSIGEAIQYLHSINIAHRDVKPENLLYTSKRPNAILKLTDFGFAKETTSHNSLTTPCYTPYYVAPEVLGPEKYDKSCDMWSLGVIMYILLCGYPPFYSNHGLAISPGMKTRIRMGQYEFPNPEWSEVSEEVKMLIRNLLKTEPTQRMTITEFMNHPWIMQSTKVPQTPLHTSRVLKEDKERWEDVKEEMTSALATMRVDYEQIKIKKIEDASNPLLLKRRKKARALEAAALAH
Chain of Alpha-2C adrenergic receptor (Homo sapiens) (P18825 whole entry, the tested form may be a part): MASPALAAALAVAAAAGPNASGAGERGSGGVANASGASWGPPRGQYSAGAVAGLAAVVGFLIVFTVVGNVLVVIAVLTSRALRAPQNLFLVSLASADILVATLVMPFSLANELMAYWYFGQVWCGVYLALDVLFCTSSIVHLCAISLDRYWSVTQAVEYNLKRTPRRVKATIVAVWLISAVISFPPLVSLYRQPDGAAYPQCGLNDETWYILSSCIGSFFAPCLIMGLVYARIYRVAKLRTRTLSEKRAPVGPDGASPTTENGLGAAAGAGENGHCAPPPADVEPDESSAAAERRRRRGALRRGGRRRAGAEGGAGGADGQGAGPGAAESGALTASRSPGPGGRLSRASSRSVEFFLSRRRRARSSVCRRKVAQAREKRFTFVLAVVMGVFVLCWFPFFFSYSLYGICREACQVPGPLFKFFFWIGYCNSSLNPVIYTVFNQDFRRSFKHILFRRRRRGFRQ
Chain of Mitogen-activated protein kinase kinase kinase 3 (Homo sapiens) (Q99759 whole entry): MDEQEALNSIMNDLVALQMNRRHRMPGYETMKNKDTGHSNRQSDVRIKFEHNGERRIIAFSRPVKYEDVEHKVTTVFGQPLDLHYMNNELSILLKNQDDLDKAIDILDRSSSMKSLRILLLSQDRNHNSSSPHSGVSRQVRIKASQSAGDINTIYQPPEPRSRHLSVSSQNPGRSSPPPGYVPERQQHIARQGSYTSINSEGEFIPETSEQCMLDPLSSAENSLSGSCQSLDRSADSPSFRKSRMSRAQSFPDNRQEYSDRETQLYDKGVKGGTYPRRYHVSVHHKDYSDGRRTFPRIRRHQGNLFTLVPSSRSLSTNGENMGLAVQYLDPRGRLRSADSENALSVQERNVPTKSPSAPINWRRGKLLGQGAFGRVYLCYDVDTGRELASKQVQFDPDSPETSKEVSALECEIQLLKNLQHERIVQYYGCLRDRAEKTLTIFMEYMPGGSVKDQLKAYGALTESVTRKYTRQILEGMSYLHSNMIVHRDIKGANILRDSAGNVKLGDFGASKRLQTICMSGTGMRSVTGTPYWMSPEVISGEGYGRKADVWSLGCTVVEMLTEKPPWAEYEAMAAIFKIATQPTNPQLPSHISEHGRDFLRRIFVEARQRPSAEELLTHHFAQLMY
Chain of Proto-oncogene tyrosine-protein kinase receptor Ret (Homo sapiens), P07949 [V804M] (P07949 whole entry V804M): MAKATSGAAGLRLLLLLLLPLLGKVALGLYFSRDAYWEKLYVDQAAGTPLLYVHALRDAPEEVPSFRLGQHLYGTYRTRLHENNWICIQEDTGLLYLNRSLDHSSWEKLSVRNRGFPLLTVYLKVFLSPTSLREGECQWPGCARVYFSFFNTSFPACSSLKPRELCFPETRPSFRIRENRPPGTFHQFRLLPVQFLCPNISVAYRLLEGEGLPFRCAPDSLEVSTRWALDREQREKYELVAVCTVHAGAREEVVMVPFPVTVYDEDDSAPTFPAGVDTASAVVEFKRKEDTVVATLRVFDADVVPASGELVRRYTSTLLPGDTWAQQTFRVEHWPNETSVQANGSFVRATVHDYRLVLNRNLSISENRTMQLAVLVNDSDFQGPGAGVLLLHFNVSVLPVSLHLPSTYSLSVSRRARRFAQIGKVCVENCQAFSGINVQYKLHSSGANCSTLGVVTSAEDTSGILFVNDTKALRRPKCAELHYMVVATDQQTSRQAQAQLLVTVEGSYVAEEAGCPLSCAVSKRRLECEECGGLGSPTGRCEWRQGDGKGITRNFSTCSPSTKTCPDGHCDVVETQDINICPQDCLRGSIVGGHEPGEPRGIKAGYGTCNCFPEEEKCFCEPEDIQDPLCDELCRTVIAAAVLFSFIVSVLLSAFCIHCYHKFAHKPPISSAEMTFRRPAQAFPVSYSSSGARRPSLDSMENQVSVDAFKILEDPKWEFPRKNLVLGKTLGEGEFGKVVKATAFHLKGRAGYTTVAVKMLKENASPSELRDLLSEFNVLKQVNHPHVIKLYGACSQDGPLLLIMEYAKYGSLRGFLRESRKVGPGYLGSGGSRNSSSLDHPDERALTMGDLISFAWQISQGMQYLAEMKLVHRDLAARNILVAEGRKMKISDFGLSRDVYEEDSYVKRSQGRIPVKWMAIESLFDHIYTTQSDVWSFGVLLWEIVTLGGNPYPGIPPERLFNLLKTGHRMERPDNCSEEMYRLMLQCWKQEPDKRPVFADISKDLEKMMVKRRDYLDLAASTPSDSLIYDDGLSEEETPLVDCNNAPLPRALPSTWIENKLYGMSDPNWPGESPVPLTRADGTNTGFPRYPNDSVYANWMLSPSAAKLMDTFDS
Chain of Dual specificity protein kinase CLK4 (Homo sapiens) (Q9HAZ1 whole entry, looked up): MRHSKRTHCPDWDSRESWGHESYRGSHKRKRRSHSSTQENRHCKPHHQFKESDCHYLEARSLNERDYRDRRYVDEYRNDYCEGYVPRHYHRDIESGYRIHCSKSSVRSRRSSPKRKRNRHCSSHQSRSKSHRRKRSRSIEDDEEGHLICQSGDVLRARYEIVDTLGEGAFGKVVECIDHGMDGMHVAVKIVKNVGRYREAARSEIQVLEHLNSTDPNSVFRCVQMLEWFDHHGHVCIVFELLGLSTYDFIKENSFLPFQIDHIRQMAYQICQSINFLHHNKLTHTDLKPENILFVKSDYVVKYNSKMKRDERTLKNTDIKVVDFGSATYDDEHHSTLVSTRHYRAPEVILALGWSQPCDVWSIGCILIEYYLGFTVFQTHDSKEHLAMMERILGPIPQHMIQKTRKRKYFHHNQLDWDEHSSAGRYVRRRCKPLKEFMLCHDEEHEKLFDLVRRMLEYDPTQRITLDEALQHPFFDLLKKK
Chain of Phosphatidylinositol 4,5-bisphosphate 3-kinase catalytic subunit alpha isoform (Homo sapiens), P42336 [M1043I] (P42336 whole entry M1043I, canonical isoform): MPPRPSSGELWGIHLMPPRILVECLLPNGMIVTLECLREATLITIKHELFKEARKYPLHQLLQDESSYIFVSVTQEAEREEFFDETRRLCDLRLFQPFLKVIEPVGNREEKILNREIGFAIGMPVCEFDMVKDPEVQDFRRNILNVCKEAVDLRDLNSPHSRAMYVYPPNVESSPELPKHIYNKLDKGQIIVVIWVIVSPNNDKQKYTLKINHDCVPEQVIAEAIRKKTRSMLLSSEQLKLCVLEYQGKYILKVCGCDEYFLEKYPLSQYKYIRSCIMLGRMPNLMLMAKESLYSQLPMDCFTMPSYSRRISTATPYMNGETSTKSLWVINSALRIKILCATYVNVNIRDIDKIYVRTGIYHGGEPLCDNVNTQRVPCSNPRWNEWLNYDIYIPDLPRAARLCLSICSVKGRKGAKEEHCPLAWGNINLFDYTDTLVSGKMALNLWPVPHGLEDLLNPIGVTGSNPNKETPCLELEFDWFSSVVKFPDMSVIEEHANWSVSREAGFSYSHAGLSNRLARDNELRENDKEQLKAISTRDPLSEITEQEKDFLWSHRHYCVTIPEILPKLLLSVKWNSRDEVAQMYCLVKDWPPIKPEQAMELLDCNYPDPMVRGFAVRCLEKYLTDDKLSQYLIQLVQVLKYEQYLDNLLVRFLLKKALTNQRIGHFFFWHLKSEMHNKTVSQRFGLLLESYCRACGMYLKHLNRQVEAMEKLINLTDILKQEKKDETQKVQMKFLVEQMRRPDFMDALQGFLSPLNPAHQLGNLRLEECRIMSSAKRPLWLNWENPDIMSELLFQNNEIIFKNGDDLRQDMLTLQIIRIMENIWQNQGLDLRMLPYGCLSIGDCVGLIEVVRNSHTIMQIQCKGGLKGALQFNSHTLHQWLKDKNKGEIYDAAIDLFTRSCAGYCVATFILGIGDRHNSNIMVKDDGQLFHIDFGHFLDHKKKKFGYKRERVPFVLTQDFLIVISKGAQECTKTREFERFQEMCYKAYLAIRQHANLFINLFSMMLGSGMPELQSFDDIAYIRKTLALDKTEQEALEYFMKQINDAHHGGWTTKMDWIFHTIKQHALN
Chain of Cyclin-dependent kinase 9 (Homo sapiens) (P50750 whole entry): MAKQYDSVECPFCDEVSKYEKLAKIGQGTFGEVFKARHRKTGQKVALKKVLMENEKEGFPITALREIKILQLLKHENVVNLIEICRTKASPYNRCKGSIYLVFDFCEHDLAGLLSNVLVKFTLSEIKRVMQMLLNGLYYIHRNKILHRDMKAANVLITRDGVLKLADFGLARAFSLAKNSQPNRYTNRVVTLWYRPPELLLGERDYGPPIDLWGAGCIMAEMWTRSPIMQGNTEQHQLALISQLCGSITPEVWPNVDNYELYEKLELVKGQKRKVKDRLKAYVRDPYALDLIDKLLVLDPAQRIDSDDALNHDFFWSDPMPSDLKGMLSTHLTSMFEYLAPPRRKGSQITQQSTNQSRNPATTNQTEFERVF

CCOC(=O)c1cc2cc(-c3cc(C(=O)NCc4ccc(C(=O)O)cc4)nn3C)ccc2[nH]1 [BI 4394]
inactive: residual activity [1] 90% | residual activity [2] 84% | residual activity [3] 82% | inhibition [4] -7.04% | residual activity [5] 100% | inhibition [6] -5.02% | residual activity [7] 72% | residual activity [8] 79% | residual activity [9] 100% | residual activity [10] 82% | inhibition [11] 4.01% | residual activity [12] 100% | residual activity [13] 99% | residual activity [14] 97% | inhibition [15] 3.56% | residual activity [16] 100% | residual activity [17] 94% | residual activity [18] 88% | residual activity [19] 88% | residual activity [20] 94% | residual activity [21] 76% | residual activity [22] 94% | residual activity [23] 93% | residual activity [24] 89% | residual activity [25] 85% | residual activity [26] 96%

Cn1nc(C(=O)NCc2ccc(C(=O)O)cc2)cc1-c1ccc2[nH]ccc2c1 [BI 4395]
inactive: residual activity [1] 98% | residual activity [2] 100% | inhibition [4] -7.92% | residual activity [5] 100% | residual activity [7] 55% | residual activity [8] 70% | residual activity [9] 66% | residual activity [10] 83% | inhibition [11] 8.85% | residual activity [12] 85% | residual activity [13] 89% | residual activity [14] 82% | inhibition [15] -9.67% | residual activity [16] 100% | residual activity [17] 78% | residual activity [20] 85% | residual activity [21] 91% | residual activity [22] 87% | residual activity [23] 89% | residual activity [24] 69% | residual activity [25] 100% | residual activity [26] 91%
